ChEMBL document CHEMBL1153335, “Incorporation of neutral C-terminal residues in 3-amidinophenylalanine-derived matriptase inhibitors” (Bioorg Med Chem Lett, 2009)
pKi: −log10 of the molar value.

How the values were obtained:
Prothrombin = Prothrombin (Homo sapiens, UniProt P00734); experiment: Inhibition of thrombin
Plasminogen = Plasminogen (Homo sapiens, UniProt P00747); experiment: Inhibition of plasmin
Coagulation factor X = Coagulation factor X (Homo sapiens, UniProt P00742); experiment: Inhibition of factor 10a
Coagulation factor X, sequence (P00742 41-179 limits assumed): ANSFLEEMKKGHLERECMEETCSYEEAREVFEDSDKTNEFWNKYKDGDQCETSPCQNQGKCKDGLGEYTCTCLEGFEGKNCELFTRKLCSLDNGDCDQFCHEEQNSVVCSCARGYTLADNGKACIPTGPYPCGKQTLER
Coagulation factor X, sequence (P00742 235-488 limits assumed): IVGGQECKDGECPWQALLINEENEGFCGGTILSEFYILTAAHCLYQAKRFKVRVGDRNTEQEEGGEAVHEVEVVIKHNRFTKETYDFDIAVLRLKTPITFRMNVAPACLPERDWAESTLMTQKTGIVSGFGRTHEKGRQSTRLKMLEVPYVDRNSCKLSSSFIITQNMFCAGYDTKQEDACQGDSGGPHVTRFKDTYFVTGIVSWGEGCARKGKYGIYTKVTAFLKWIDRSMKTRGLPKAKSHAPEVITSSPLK

[1] = biological target: Urokinase-type plasminogen activator (Homo sapiens, UniProt P00749); experiment: Inhibition of uPA
[2] = biological target: T1, Suppressor of tumorigenicity 14 protein (Homo sapiens, UniProt Q9Y5Y6); experiment: Inhibition of matriptase
T1 sequence (Q9Y5Y6 whole entry): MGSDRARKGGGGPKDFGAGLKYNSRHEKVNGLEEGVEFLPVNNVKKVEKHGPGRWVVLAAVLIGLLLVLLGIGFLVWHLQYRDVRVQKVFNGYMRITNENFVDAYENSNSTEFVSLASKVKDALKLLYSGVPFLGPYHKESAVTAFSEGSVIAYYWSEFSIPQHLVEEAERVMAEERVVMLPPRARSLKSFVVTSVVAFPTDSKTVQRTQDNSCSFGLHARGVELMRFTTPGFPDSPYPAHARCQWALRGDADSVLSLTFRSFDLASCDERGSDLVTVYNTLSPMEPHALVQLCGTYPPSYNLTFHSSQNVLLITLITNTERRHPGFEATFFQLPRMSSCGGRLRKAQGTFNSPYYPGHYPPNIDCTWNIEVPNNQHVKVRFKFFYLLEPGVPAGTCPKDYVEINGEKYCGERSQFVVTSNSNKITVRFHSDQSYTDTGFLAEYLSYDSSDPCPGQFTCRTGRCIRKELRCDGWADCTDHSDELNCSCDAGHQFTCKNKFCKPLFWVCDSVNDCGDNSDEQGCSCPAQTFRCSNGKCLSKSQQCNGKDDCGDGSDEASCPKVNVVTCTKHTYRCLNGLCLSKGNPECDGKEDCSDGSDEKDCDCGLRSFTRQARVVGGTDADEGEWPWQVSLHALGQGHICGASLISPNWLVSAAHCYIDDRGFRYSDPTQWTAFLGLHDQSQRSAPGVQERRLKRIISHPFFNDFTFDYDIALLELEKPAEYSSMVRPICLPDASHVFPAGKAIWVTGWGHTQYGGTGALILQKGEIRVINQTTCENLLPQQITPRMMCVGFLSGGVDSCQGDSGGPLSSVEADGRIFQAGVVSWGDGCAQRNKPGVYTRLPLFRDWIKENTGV

Rattus norvegicus [3] = experiment: Cmax in rat assessed as N-hydroxy-melagatran level at 20 mg/kg, po after 120 mins; format: ADME, organism-based; parameters: dose 20 mg/kg, route oral; conditions: in vivo, 2 h
Rattus norvegicus [4] = experiment: Cmax in rat assessed as melagatran level at 20 mg/kg, po after 120 mins; format: ADME, organism-based; parameters: dose 20 mg/kg, route oral; conditions: in vivo, 2 h

Plasminogen, sequence (P00747 97-580 limits assumed): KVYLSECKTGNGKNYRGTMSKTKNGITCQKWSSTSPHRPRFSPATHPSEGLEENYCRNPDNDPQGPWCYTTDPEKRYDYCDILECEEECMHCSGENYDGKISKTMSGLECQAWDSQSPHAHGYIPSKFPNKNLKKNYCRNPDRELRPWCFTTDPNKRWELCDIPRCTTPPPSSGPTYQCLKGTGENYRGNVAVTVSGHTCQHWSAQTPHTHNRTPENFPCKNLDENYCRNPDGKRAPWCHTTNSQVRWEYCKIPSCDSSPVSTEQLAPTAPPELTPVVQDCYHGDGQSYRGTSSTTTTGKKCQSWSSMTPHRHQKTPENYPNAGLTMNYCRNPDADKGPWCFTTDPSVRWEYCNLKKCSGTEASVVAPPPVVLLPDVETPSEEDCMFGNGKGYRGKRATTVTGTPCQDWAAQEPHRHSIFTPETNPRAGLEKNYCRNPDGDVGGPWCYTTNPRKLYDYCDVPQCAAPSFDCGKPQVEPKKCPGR
Plasminogen, sequence (P00747 581-810 limits assumed): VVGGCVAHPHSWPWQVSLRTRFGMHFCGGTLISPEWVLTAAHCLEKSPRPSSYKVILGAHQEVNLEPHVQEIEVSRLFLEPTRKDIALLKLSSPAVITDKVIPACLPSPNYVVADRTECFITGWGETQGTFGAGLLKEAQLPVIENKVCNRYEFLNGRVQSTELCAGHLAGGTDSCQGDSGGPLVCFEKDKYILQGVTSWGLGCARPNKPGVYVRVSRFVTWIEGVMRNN

Structure (SMILES)	pKi (Prothrombin)	pKi (Plasminogen)	pKi (Coagulation factor X)	pKi [1]	pKi [2]	Cmax (Rattus norvegicus [3])	Cmax (Rattus norvegicus [4])
CNC(=O)CCC(=O)N1CCN(C(=O)[C@H](Cc2cccc(C(=N)N)c2)NS(=O)(=O)c2cccc(NC(=O)CCN)c2)CC1	4.54	5.44	4.36	4.77	7.28		
CCOC(=O)N1CCN(C(=O)[C@H](Cc2cccc(C(=N)N)c2)NS(=O)(=O)c2cccc(NC(=O)CCN)c2)CC1	5.29	4.87	4.59	5.04	7.19		
CNC(=O)CCCC1CCN(C(=O)[C@H](Cc2cccc(C(=N)N)c2)NS(=O)(=O)c2cccc(NC(=O)CCN)c2)CC1	6.07	5.80	5.00	5.48			
N=C(N)c1cccc(C[C@H](NS(=O)(=O)c2cccc(NC(=O)CCN)c2)C(=O)N2CCCCC2)c1	6.57	5.48	5.00	5.59	7.48		
N=C(N)c1cccc(C[C@H](NS(=O)(=O)c2cccc(NC(=O)CCN)c2)C(=O)N2CCCC[C@@H]2C(=O)O)c1	5.64	5.03	4.96	5.14	6.74		
N=C(N)c1cccc(C[C@H](NS(=O)(=O)c2cccc(NC(=O)CCN)c2)C(=O)N2CCNCC2)c1	4.14	5.59	5.68	6.06	7.43		
CC1CCN(C(=O)[C@H](Cc2cccc(C(=N)N)c2)NS(=O)(=O)c2cccc(NC(=O)CCN)c2)CC1	6.96	5.21	5.36	5.52	7.28		
N=C(N)c1cccc(C[C@H](NS(=O)(=O)c2cccc(NC(=O)CCN)c2)C(=O)N2CCCC(C(N)=O)C2)c1 (some centres not stated)	5.68	5.89	4.82	5.13			
N=C(N)c1cccc(C[C@H](NS(=O)(=O)c2cccc(NC(=O)CCN)c2)C(=O)N2CCN(c3ccc(O)cc3)CC2)c1	4.84	5.60	5.60	5.08	6.82		
COC(=O)[C@@H]1CCCCN1C(=O)[C@H](Cc1cccc(C(=N)N)c1)NS(=O)(=O)c1cccc(NC(=O)CCN)c1	4.97	4.16	3.90	3.90	5.62		
CCOC(=O)CN[C@@H](C(=O)N1CC[C@H]1C(=O)NCc1ccc(/C(N)=N\O)cc1)C1CCCCC1 [XIMELAGATRAN]						1100 nM	1000 nM
CC1CCCCN1C(=O)[C@H](Cc1cccc(C(=N)N)c1)NS(=O)(=O)c1cccc(NC(=O)CCN)c1 (some centres not stated)	6.40	5.35	4.77	4.46	6.33		
COC(=O)CCCC1CCN(C(=O)[C@H](Cc2cccc(C(=N)N)c2)NS(=O)(=O)c2cccc(NC(=O)CCN)c2)CC1	6.22	5.55	5.21	5.60			
N=C(N)c1cccc(C[C@H](NS(=O)(=O)c2cccc(NC(=O)CCN)c2)C(=O)N2CCC(Cc3ccccc3)CC2)c1	6.46	5.55	5.47	5.66	7.77		
N=C(N)c1cccc(C[C@H](NS(=O)(=O)c2cccc(NC(=O)CCN)c2)C(=O)N2CCC(CCCC(N)=O)CC2)c1	6.17	5.54	5.09	5.68			
N=C(N)c1cccc(C[C@H](NS(=O)(=O)c2cccc(NC(=O)CCN)c2)C(=O)N2CCC(C(N)=O)CC2)c1	5.90	5.92	5.60	5.48	7.89		
COC(=O)[C@H]1CCCCN1C(=O)[C@H](Cc1cccc(C(=N)N)c1)NS(=O)(=O)c1cccc(NC(=O)CCN)c1	4.62	5.31	7.00	4.12	7.00		
N=C(N)c1cccc(C[C@H](NS(=O)(=O)c2cccc(NC(=O)CCN)c2)C(=O)N2CCCC[C@H]2C(=O)O)c1	3.80	4.10	4.52	3.71	4.96		
N=C(N)c1cccc(C[C@H](NS(=O)(=O)c2cccc(NC(=O)CCN)c2)C(=O)N2CCN(C(=O)OCc3ccccc3)CC2)c1	5.85	5.89	4.72	5.48	8.12		
N=C(N)c1cccc(C[C@H](NS(=O)(=O)c2cccc(NC(=O)CCN)c2)C(=O)N2CCC(CCCC(=O)O)CC2)c1	4.85	5.48	4.74	4.77			
